Patent US7138361B2, “Herbicidal heterocycles” (E. I. du Pont de Nemours and Company, priority 2000, dated 2006)

Tests used:
Assay type in all cases: in vivo
[1] = tested on: Surinam grass (Brachiaria decumbens); assay: Test B postemergence
In short: (§1)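 Seeds were planted and sprayed preemergence with test chemical in a non-phytotoxic solvent mixture containing surfactant; postemergence plants (2 to 18 cm, 1- to 4-leaf stage) received the same formulation. Greenhouse hold 13 to 15 days, then visual rating versus untreated controls on a 0–100 scale (0 no effect, 100 complete control).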

[2] = tested on: barnyardgrass (Echinochloa crus-galli); assay: Test B postemergence
In short: as §1

[3] = tested on: blackgrass (Alopecurus myosuroides); assay: Test B postemergence
In short: as §1

[4] = tested on: cocklebur (Xanthium strumarium); assay: Test B postemergence
In short: as §1

corn (Zea mays) [5] = assay: Test B postemergence
In short: as §1

[6] = tested on: crabgrass (Digitaria sanguinalis); assay: Test B postemergence
In short: as §1

[7] = tested on: giant foxtail (Setaria faberii); assay: Test B postemergence
In short: as §1

[8] = tested on: lambsquarters (Chenopodium album); assay: Test B postemergence
In short: as §1

[9] = tested on: morning glory (Ipomoea hederacea); assay: Test B postemergence
In short: as §1

[10] = tested on: pigweed (Amaranthus retroflexus); assay: Test B postemergence
In short: as §1

[11] = tested on: velvetleaf (Abutilon theophrasti); assay: Test B postemergence
In short: as §1

[12] = tested on: wheat (Triticum aestivum); assay: Test B postemergence
In short: as §1

wild oat (Avena fatua) = assay: Test B postemergence
In short: as §1

[13] = tested on: Surinam grass (Brachiaria decumbens); assay: Test B preemergence
In short: as §1

[14] = tested on: barnyardgrass (Echinochloa crus-galli); assay: Test B preemergence
In short: as §1

[15] = tested on: cocklebur (Xanthium strumarium); assay: Test B preemergence
In short: as §1

corn (Zea mays) [16] = assay: Test B preemergence
In short: as §1

[17] = tested on: crabgrass (Digitaria sanguinalis); assay: Test B preemergence
In short: as §1

[18] = tested on: giant foxtail (Setaria faberii); assay: Test B preemergence
In short: as §1

[19] = tested on: lambsquarters (Chenopodium album); assay: Test B preemergence
In short: as §1

[20] = tested on: morning glory (Ipomoea hederacea); assay: Test B preemergence
In short: as §1

[21] = tested on: pigweed (Amaranthus retroflexus); assay: Test B preemergence
In short: as §1

rice (Oryza saliva) = assay: Test B preemergence
In short: as §1

[22] = tested on: velvetleaf (Abutilon theophrasti); assay: Test B preemergence
In short: as §1

[23] = tested on: barnyardgrass (Echinochloa crus-galli); assay: Test C flooded paddy test; conditions: for Barnyardgrass plant response rating: Flooded Paddy, Rate 500 g/ha, scale 0 to 100, 0 no effect, 100 complete control; for Plant response rating, Barnyardgrass / Plant response rating (scale 0 to 100), Barnyardgrass: flooded paddy test; for Plant response rating, Barnyardgrass: scale 0 to 100 (0 no effect, 100 complete control); for Plant response rating (scale 0 to 100), Barnyardgrass: Rate 62 g/ha, visually evaluated after 12 to 14 days, 0 = no effect, 100 = complete control
In short: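 Visually assessed vs untreated controls 12–14 d post-treatment (greenhouse). Flooded paddy plants were at the 2-leaf stage; scale 0 = no effect, 100 = complete control.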

Sunflower [24] = assay: Test C preemergence; conditions: Rate 500 g/ha, visual evaluation after 12 to 14 days
Sunflower [25] = assay: Test C preemergence; conditions: Rate 62 g/ha, scale 0 to 100
[26] = Rate 125 g/ha, scale 0 to 100, 0 no effect, 100 complete control
[27] = Rate 500 g/ha, scale 0 (no effect) to 100 (complete control), 13 to 15 days
[28] = Preemergence, Rate 500 g/ha, scale 0 to 100, 0 no effect, 100 complete control
[29] = preemergence, Rate 125 g/ha, scale of 0 to 100 where 0 is no effect and 100 is complete control, 13 to 15 days

SMILES: CCC(CC)c1ccn(C2CCN(c3ccc(Br)c(OC)c3)C2=O)n1 (stereo not drawn) [Compound 143]
- Plant response rating, Surinam grass [1, 26]: 0
- Plant response rating, Surinam grass [1, 27]: 0
- Plant response rating, Barnyardgrass [2, 26]: 0
- Plant response rating, Barnyardgrass [2, 27]: 70
- Plant response rating, Blackgrass [3, 26]: 0
- Plant response rating, Blackgrass [3, 27]: 0
- Plant response rating, Cocklebur [4, 26]: 0
- Plant response rating, Cocklebur [4, 27]: 100
- Plant response rating, Corn (corn (Zea mays) [5]; [26]): 0
- Plant response rating, Corn (corn (Zea mays) [5]; [27]): 0
- Plant response rating, Crabgrass [6, 26]: 0
- Plant response rating, Crabgrass [6, 27]: 80
- Plant response rating, Foxtail, Giant [7, 26]: 30
- Plant response rating, Foxtail, Giant [7, 27]: 80
- Plant response rating, Lambsquarters [8, 26]: 80
- Plant response rating, Lambsquarters [8, 27]: 100
- Plant response rating, Morningglory [9, 26]: 30
- Plant response rating, Morningglory [9, 27]: 100
- Plant response rating, Pigweed [10, 26]: 70
- Plant response rating, Pigweed [10, 27]: 90
- Plant response rating, Velvetleaf [11, 26]: 50
- Plant response rating, Velvetleaf [11, 27]: 70
- Plant response rating, Wheat [12, 26]: 0
- Plant response rating, Wheat [12, 27]: 0
- Plant response rating, Wild Oat (wild oat (Avena fatua); [26]): 0
- Plant response rating, Wild Oat (wild oat (Avena fatua); [27]): 0
- Plant response rating, Surinam grass [13, 28]: 90
- Plant response rating, Surinam grass [13, 29]: 80
- Plant response rating, Barnyardgrass [14, 28]: 100
- Plant response rating, Barnyardgrass [14, 29]: 100
- Plant response rating, Cocklebur [15, 28]: 30
- Plant response rating, Cocklebur [15, 29]: 0
- Plant response rating, Corn (corn (Zea mays) [16]; [28]): 20
- Plant response rating, Corn (corn (Zea mays) [16]; [29]): 0
- Plant response rating, Crabgrass [17, 28]: 100
- Plant response rating, Crabgrass [17, 29]: 100
- Plant response rating, Foxtail, Giant [18, 28]: 100
- Plant response rating, Foxtail, Giant [18, 29]: 100
- Plant response rating, Lambsquarters [19, 28]: 100
- Plant response rating, Lambsquarters [19, 29]: 100
- Plant response rating, Morningglory [20, 28]: 70
- Plant response rating, Morningglory [20, 29]: 20
- Plant response rating, Pigweed [21, 28]: 100
- Plant response rating, Pigweed [21, 29]: 100
- Plant response rating, Rice (rice (Oryza saliva); [28]): 30
- Plant response rating, Rice (rice (Oryza saliva); [29]): 0
- Plant response rating, Velvetleaf [22, 28]: 80
- Plant response rating, Velvetleaf [22, 29]: 60
- Barnyardgrass plant response rating [23]: 100
- Plant response rating, Barnyardgrass ([23]; Rate 125 g/ha): 100
- Plant response rating, Barnyardgrass ([23]; Rate 250 g/ha): 100
- Plant response rating (scale 0 to 100), Barnyardgrass [23]: 55
- Plant response rating (0 to 100), Sunflower (Sunflower [24]): 90
- Plant response rating, Sunflower (Sunflower [25]): 60

SMILES: COc1cc(N2CCC(n3ccc(C(C)(C)C)n3)C2=O)ccc1Br (stereo not drawn) [Compound 141]
- Plant response rating, Surinam grass [1, 26]: 0
- Plant response rating, Surinam grass [1, 27]: 0
- Plant response rating, Barnyardgrass [2, 26]: 0
- Plant response rating, Barnyardgrass [2, 27]: 80
- Plant response rating, Blackgrass [3, 26]: 0
- Plant response rating, Blackgrass [3, 27]: 40
- Plant response rating, Cocklebur [4, 26]: 40
- Plant response rating, Cocklebur [4, 27]: 100
- Plant response rating, Corn (corn (Zea mays) [5]; [26]): 0
- Plant response rating, Corn (corn (Zea mays) [5]; [27]): 0
- Plant response rating, Crabgrass [6, 26]: 20
- Plant response rating, Crabgrass [6, 27]: 40
- Plant response rating, Foxtail, Giant [7, 26]: 30
- Plant response rating, Foxtail, Giant [7, 27]: 50
- Plant response rating, Lambsquarters [8, 26]: 90
- Plant response rating, Lambsquarters [8, 27]: 100
- Plant response rating, Morningglory [9, 26]: 0
- Plant response rating, Morningglory [9, 27]: 70
- Plant response rating, Pigweed [10, 26]: 80
- Plant response rating, Pigweed [10, 27]: 100
- Plant response rating, Velvetleaf [11, 26]: 50
- Plant response rating, Velvetleaf [11, 27]: 70
- Plant response rating, Wheat [12, 26]: 0
- Plant response rating, Wheat [12, 27]: 0
- Plant response rating, Wild Oat (wild oat (Avena fatua); [26]): 0
- Plant response rating, Wild Oat (wild oat (Avena fatua); [27]): 0
- Plant response rating, Surinam grass [13, 28]: 100
- Plant response rating, Surinam grass [13, 29]: 100
- Plant response rating, Barnyardgrass [14, 28]: 100
- Plant response rating, Barnyardgrass [14, 29]: 100
- Plant response rating, Cocklebur [15, 28]: 100
- Plant response rating, Cocklebur [15, 29]: 70
- Plant response rating, Corn (corn (Zea mays) [16]; [28]): 20
- Plant response rating, Corn (corn (Zea mays) [16]; [29]): 0
- Plant response rating, Crabgrass [17, 28]: 100
- Plant response rating, Crabgrass [17, 29]: 100
- Plant response rating, Foxtail, Giant [18, 28]: 100
- Plant response rating, Foxtail, Giant [18, 29]: 100
- Plant response rating, Lambsquarters [19, 28]: 100
- Plant response rating, Lambsquarters [19, 29]: 100
- Plant response rating, Morningglory [20, 28]: 100
- Plant response rating, Morningglory [20, 29]: 90
- Plant response rating, Pigweed [21, 28]: 100
- Plant response rating, Pigweed [21, 29]: 100
- Plant response rating, Rice (rice (Oryza saliva); [28]): 50
- Plant response rating, Rice (rice (Oryza saliva); [29]): 30
- Plant response rating, Velvetleaf [22, 28]: 100
- Plant response rating, Velvetleaf [22, 29]: 70
- Barnyardgrass plant response rating [23]: 100
- Plant response rating, Barnyardgrass ([23]; Rate 125 g/ha): 100
- Plant response rating, Barnyardgrass ([23]; Rate 250 g/ha): 100
- Plant response rating (scale 0 to 100), Barnyardgrass [23]: 70
- Plant response rating (0 to 100), Sunflower (Sunflower [24]): 100
- Plant response rating, Sunflower (Sunflower [25]): 30

SMILES: CCC(C)c1ccn(C2CCN(c3ccc(F)c(C(F)(F)F)c3)C2=O)n1 (stereo not drawn) [Compound 145]
- Plant response rating, Surinam grass [1, 26]: 0
- Plant response rating, Surinam grass [1, 27]: 0
- Plant response rating, Barnyardgrass [2, 26]: 0
- Plant response rating, Barnyardgrass [2, 27]: 90
- Plant response rating, Blackgrass [3, 26]: 0
- Plant response rating, Blackgrass [3, 27]: 0
- Plant response rating, Cocklebur [4, 26]: 0
- Plant response rating, Cocklebur [4, 27]: 0
- Plant response rating, Corn (corn (Zea mays) [5]; [26]): 0
- Plant response rating, Corn (corn (Zea mays) [5]; [27]): 0
- Plant response rating, Crabgrass [6, 26]: 0
- Plant response rating, Crabgrass [6, 27]: 0
- Plant response rating, Foxtail, Giant [7, 26]: 0
- Plant response rating, Foxtail, Giant [7, 27]: 40
- Plant response rating, Lambsquarters [8, 26]: 80
- Plant response rating, Lambsquarters [8, 27]: 100
- Plant response rating, Morningglory [9, 26]: 0
- Plant response rating, Morningglory [9, 27]: 0
- Plant response rating, Pigweed [10, 26]: 0
- Plant response rating, Pigweed [10, 27]: 80
- Plant response rating, Velvetleaf [11, 26]: 0
- Plant response rating, Velvetleaf [11, 27]: 30
- Plant response rating, Wheat [12, 26]: 0
- Plant response rating, Wheat [12, 27]: 0
- Plant response rating, Wild Oat (wild oat (Avena fatua); [26]): 0
- Plant response rating, Wild Oat (wild oat (Avena fatua); [27]): 0
- Plant response rating, Surinam grass [13, 28]: 60
- Plant response rating, Surinam grass [13, 29]: 0
- Plant response rating, Barnyardgrass [14, 28]: 100
- Plant response rating, Barnyardgrass [14, 29]: 70
- Plant response rating, Cocklebur [15, 28]: 0
- Plant response rating, Cocklebur [15, 29]: 0
- Plant response rating, Corn (corn (Zea mays) [16]; [28]): 0
- Plant response rating, Corn (corn (Zea mays) [16]; [29]): 0
- Plant response rating, Crabgrass [17, 28]: 100
- Plant response rating, Crabgrass [17, 29]: 100
- Plant response rating, Foxtail, Giant [18, 28]: 100
- Plant response rating, Foxtail, Giant [18, 29]: 100
- Plant response rating, Lambsquarters [19, 28]: 100
- Plant response rating, Lambsquarters [19, 29]: 100
- Plant response rating, Morningglory [20, 28]: 0
- Plant response rating, Morningglory [20, 29]: 0
- Plant response rating, Pigweed [21, 28]: 100
- Plant response rating, Pigweed [21, 29]: 100
- Plant response rating, Rice (rice (Oryza saliva); [28]): 80
- Plant response rating, Rice (rice (Oryza saliva); [29]): 0
- Plant response rating, Velvetleaf [22, 28]: 0
- Plant response rating, Velvetleaf [22, 29]: 0
- Barnyardgrass plant response rating [23]: 100
- Plant response rating, Barnyardgrass ([23]; Rate 125 g/ha): 65
- Plant response rating, Barnyardgrass ([23]; Rate 250 g/ha): 85
- Plant response rating (scale 0 to 100), Barnyardgrass [23]: 30
- Plant response rating (0 to 100), Sunflower (Sunflower [24]): 50
- Plant response rating, Sunflower (Sunflower [25]): 0
